Data set [1] concerns indomethacin induced ulcer. In words: antiulcer activity: suppression of indomethacin induced ulcer in mice. As to conditions: for inhibition in vivo at 100 mg/kg: Mus musculus, po, read-out: Suppression rate of indomethacin induced ulcer. In kind it is in vivo, ddY series male mice. On the procedure: The antiulcer activity of the compounds of this invention was determined by the following method. Four-week-old ddY series male mice were used as the test animals after they were fasted for 24 hours. Each test compound suspended in a 1% gum arabic solution was administerd to the stomach of each mouse at a dose of 100 mg/kg, and then, after 30 minutes, 20 mg/kg of indomethacin was administered orally. Four hours after the administration of indomethacin, the stomach of mouse was extirpated and the length of ulcers was measured. Then, the ulcer index was determined by the total sum of the scores as calculated in Table 1. | TABLE 1 |Length of ulcer | 0.5 mm< 1 mm< 2 mm< 3 mm< |Score 0.5 1 2 3 The mean ulcer index of each group was calculated and the suppression rate against the control group in terms of difference in the mean ulcer index was determined.

The nature of the next data set: reversion test. Format: cell-based.
A short description of data set [2]: acute toxicity, LD50 (P.O.). As to conditions: in vivo, po.
The conditions of data set [3]: background, cited from earlier work.
The mark [4] stands for this setting: 100 mg/kg, p.o., ddY male mice, indomethacin 20 mg/kg orally 30 minutes later, ulcers measured 4 hours after indomethacin.

This is an account of results in patent US5008266A, “4(3H)-quinazolinone derivatives and pharmaceutical compositions” (Nisshin Flour Milling Co., Ltd., priority 1987, dated 1991).

Like-named read-outs stand apart in the source and are kept apart here.

Consider `O=c1c2ccccc2nc(SCc2nc3ccccc3[nH]2)n1-c1ccccc1` [2-(2-Benzimidazolylmethylthio)-3-phenyl-4(3H)-quinazolinone], for which the inhibition in vivo at 100 mg/kg in data set [1] (setting [4]) was 81%.
Regarding `CCN(CC)CCSc1nc2ccccc2c(=O)n1-c1ccccc1` [2-(2-Diethylaminoethylthio)-3-phenyl-4(3H)-quinazolinone], in data set [1] (setting [4]), the inhibition in vivo at 100 mg/kg was 45%.
As to `COc1ccc(-n2c(SCc3nccc(OC)c3C)nc3ccc(C)cc3c2=O)cc1` [2-[(4-Methoxy-3-methylpyridin-2-yl)methylthio]-3-(4-methoxyphenyl)-6-methyl-4(3H)-quinazolinone], the inhibition in vivo at 100 mg/kg in data set [1] (setting [4]) was 49%.
As to `COc1cc(CSc2nc3ccc(C)cc3c(=O)n2-c2ccccc2)ncc1C` [2[(4-Methoxy-5-methylpyridin-2-yl)methylthio]-6-methyl-3-phenyl-4(3H)-quinazolinone], in data set [1] (setting [4]), the inhibition in vivo at 100 mg/kg amounted to 44%.
By LD50 is commonly meant the dose expected to kill half of the subjects tested. In the case of `CCn1c(SCc2ccccn2)nc2ccccc2c1=O` [3-Ethyl-2-(2-pyridylmethylthio)-4(3H)-quinazolinone], the reversion test result in the data set “reversion test” is reported as “negative”. The inhibition in vivo at 100 mg/kg in data set [1] (setting [4]) was 96%. In data set [2], the LD50 was above 3000 mg/kg.
For `O=c1c2ccccc2nc(SCc2ccccn2)n1CCc1ccccc1` [3-Phenethyl-2-(2-pyridylmethylthio)-4(3H)-quinazolinone], the inhibition in vivo at 100 mg/kg in data set [1] (setting [4]) is 60%.
As for `O=c1c2ccccc2nc(SCc2cccnc2)n1-c1ccccc1` [3-Phenyl-2-(3-pyridylmethylthio)-4(3H)-quinazolinone], in data set [1] (setting [4]), the “Suppression rate of indomethacin induced ulcer” value was found to be 63.
Consider `Cc1ccc2nc(SCc3ccccn3)n(-c3ccccc3)c(=O)c2c1` [6-Methyl-3-phenyl-2-(2-pyridylmethylthio)-4(3H)-quinazolinone], for which the inhibition in vivo at 100 mg/kg in data set [1] (setting [4]) was 38%.
For `CN/C(=N/CCSCc1nc[nH]c1C)NC#N` [Cimetidine], the side effects result in data set [3] (known) is given as “gynecomatism”. Also, in data set [3] (reported), the “recurrence of ulcer after suspension of administration” value is “numbers of cases are reported about recurrence of ulcer”. For the same molecule, in data set [1] (4 h), the inhibition in vivo at 100 mg/kg amounted to 40%.
